Laboratory results as given in patent US20080233187A1, “Method of Production of Fine-Crystalline Mixture Containing Non-Steroid Anti-Inflammatory Drug, Fine-Crystalline Mixture Obtainable by this Method and Solid Pharmaceutical Composition Containing this Mixture” (priority 2005, published 2008).

Tests used:
[1] = racemic mixture administered to a human; cited from earlier work
[2] = most commonly represented sizes of crystals (photographs of the crystals); type: physicochemical
Description: The auxiliary substance in the fine-crystalline mixtures was Avicel®.

[3] = release rate of the active ingredient from capsules and tablets (European Pharmacopoeia, chapter 2.9.3.); type: physicochemical; settings: tablets of recipe C2 composition with fine-crystalline mixture of the drug and microcrystalline cellulose, direct pressing (FIG. 5 and 6)
Experimental: The release rate of the active ingredient from the capsules prepared by the process described above, and for comparison also from the tablets, was tested by the method of the European Pharmacopoeia for testing solid pharmaceutical forms (chapter 2.9.3.). The medium used was phosphate buffer having pH 7.2.

Which “conversion of R(−)-enantiomer to the S(+) form” value [1] does the source give for `CC(C)Cc1ccc([C@@H](C)C(=O)O)cc1` [R(−)-ibuprofen, R(−)-2-(4-isobutylphenyl)-propionic acid] here?
Its value is 50 to 60%.

What does the source list for `CC(C)Cc1ccc([C@H](C)C(=O)O)cc1` [coarse-crystalline S(+)-ibuprofen, S(+)-2-(4-isobutylphenyl)-propionic acid]?
lengthwise size of the stick-form crystals ([2]; starting material (photograph FIG. 7)): about 200 micrometers; length of crystals ([2]; starting material, no solvent): 250 μm; width of crystals ([2]; starting material, no solvent): 65 μm

For `CS(=O)(=O)Nc1ccc([N+](=O)[O-])cc1Oc1ccccc1` [nimesulide, N-(4-nitro-2-phenoxyphenyl)-methanesulphonamide], which “release of the active ingredient from the tablet” value [3] is on record?
Its value is “very fast release”.

For `CN1C(C(=O)Nc2ccccn2)=C(O)c2ccccc2S1(=O)=O` [piroxicam, 4-hydroxy-2-methyl-3-[(2-pyridyl)aminocarbonyl]-2H-1,2-benzothiazin-1,1-dioxide], which “release of the active ingredient from the tablet” value [3] is on record?
Its value is “very fast release”.
